Type in all cases: cell-based
In experiment [1] the test system is MV4; 11. Put plainly: Caspase-Glo 3/7 assay. The settings on record: Homo sapiens. The text has this:
(§1) Identification of tumor types that are the most sensitive to the KSP inhibitors of the present invention can be accomplished using an unbiased approach that uses several cell-based assays. The assays chosen were as follows: • CellTiter-Glo®. This is an assay designed to measure ATP concentration in a cell culture, and can be correlated to cell number. Briefly CellTiter-Glo® (Promega Corporation) is a homogeneous method using the single CellTiter-Glo® reagent to detect ATP wherein ATP in the assay drives the activity of a thermostable luciferase to create a luminescent signal which can then be measured and correlated with the number of viable cells. Briefly, for adherent cells, 1,000 to 5,000 cells/well were plated in 96-well plates (100 μl/well) and let to adhere for 24 hours before being treated with drug. For non-adherent cells, 1,000 to 10,000 cells/well were plated in 96-well plates (100 μl/well) and immediately treated with drug. Drug dilutions were prepared in DMSO at 1000 times the final concentration. These dilutions were then diluted 1/100 in growth media before being added to the cells (11 μl/well) to achieve the desired final concentration. After 48 h in a 37° C. tissue culture incubator, the plates were processed for the CellTiter-Glo®assay according to the manufacturer's instructions. Protocol for a 72 hour cell proliferation assay: The 72 hour assay was performed the same way as the 48 hour assay except for the following modifications: For adherent cells, 500 to 5,000 cells/well were plated in 96-well plates (90 μl/well cell growth media) and left to adhere for 24 hours before being treated with drug. For non-adherent cells, 1,000 to 10,000 cells/well were plated in 96-well plates (90 μl/well cell growth media) and immediately treated with drug. Data values presented represent the concentration of test compound required for a 50% reduction in growth. • LDH release. The Cytotoxicity Detection KitPLUS (LDH) assay (Roche Diagnostics, Manheim, Germany) measures the amount of LDH released in the media by dying cells; LDH catalyzes the conversion of lactate into pyruvate. The enzymatic reaction is coupled to a chemical reaction that uses a tetrazolium salt to form a formazan that is red and can be detected by its absorbance at 490 nm. This assay measures the amount of cell death after drug treatment. Cells were plated at 10,000 cells/well in 96-well plates (100 μl/well). Adherent cells were let to adhere for 24 hours before being treated with drug, whereas non-adherent cells were immediately treated with drug. Drug dilutions were prepared in DMSO at 1000 times the final concentration. These dilutions were then diluted 1/100 in growth media before being added to the cells (11 μl/well) to achieve the desired final concentration. After 48 h in a 37° C. tissue culture incubator, the plates were processed for the Cytotoxicity Detection KitPLUS (LDH) assay according to the manufacturer's instructions. The media only values were subtracted from all the data points before analysis. Data values presented correspond to the compound concentration wherein LDH output is at half maximal level. • Caspase-Glo® 3/7. The Caspase-Glo® 3/7 Assay (Promega Corporation) is a homogeneous luminescent assay that measures caspase-3/7 activities. The assay provides a proluminescent caspase-3/7 DEVD-aminoluciferin substrate and a thermostable luciferase in a reagent optimized for caspase-3/7 activity, luciferase activity and cell lysis. Adding the single Caspase-Glo® 3/7 Reagent results in cell lysis, followed by caspase cleavage of the substrate. This liberates free aminoluciferin, which is consumed by the luciferase, generating a luminescent signal. The signal is proportional to caspase-3/7 activity. Data values presented correspond to the compound concentration wherein caspase 3/7 activity is at half maximal level.

Experiment [2] has as its system Colo-205. Put plainly: Caspase-Glo 3/7 assay. The following applies: Homo sapiens.
Description: as §1

Another experiment relates to T47-D. The experiment is described as follows: Caspase-Glo 3/7 assay. The settings on record: Homo sapiens, T47D.
Description: as §1

The test system of another experiment is HCT-116. The experiment is described as follows: Caspase-Glo 3/7 assay. The following applies: Homo sapiens.
Description: as §1

For experiment [3], the system named is MV4; 11. The experiment is described as follows: LDH release assay. The following applies: Homo sapiens; MV4;11, 48 h. The text has this: (§2) Identification of tumor types that are the most sensitive to the KSP inhibitors of the present invention can be accomplished using an unbiased approach that uses several cell-based assays. The assays chosen were as follows: • CellTiter-Glo®. This is an assay designed to measure ATP concentration in a cell culture, and can be correlated to cell number. Briefly CellTiter-Glo® (Promega Corporation) is a homogeneous method using the single CellTiter-Glo® reagent to detect ATP wherein ATP in the assay drives the activity of a thermostable luciferase to create a luminescent signal which can then be measured and correlated with the number of viable cells. Briefly, for adherent cells, 1,000 to 5,000 cells/well were plated in 96-well plates (100 μl/well) and let to adhere for 24 hours before being treated with drug. For non-adherent cells, 1,000 to 10,000 cells/well were plated in 96-well plates (100 μl/well) and immediately treated with drug. Drug dilutions were prepared in DMSO at 1000 times the final concentration. These dilutions were then diluted 1/100 in growth media before being added to the cells (11 μl/well) to achieve the desired final concentration. After 48 h in a 37° C. tissue culture incubator, the plates were processed for the CellTiter-Glo®assay according to the manufacturer's instructions. Protocol for a 72 hour cell proliferation assay: The 72 hour assay was performed the same way as the 48 hour assay except for the following modifications: For adherent cells, 500 to 5,000 cells/well were plated in 96-well plates (90 μl/well cell growth media) and left to adhere for 24 hours before being treated with drug. For non-adherent cells, 1,000 to 10,000 cells/well were plated in 96-well plates (90 μl/well cell growth media) and immediately treated with drug. Data values presented represent the concentration of test compound required for a 50% reduction in growth. • LDH release. […] The enzymatic reaction is coupled to a chemical reaction that uses a tetrazolium salt to form a formazan that is red and can be detected by its absorbance at 490 nm. […]

In experiment [4] the test system is Colo-205. Put plainly: LDH release assay. The settings on record: Homo sapiens.
Description: as §2
In general terms: Release of lactate dehydrogenase indicates damage to the cell membrane.

The next experiment has as its system tumor cell lines. Put plainly: Inhibition of cellular proliferation, CellTiter-Glo, 72 hours, all cell lines tested. The following applies: 72 hours of continuous compound exposure. The text has this:
Cell lines used were as follows: HCT-116 (National Cancer Institute's DCTF Tumor Repository, catalog #NCI-502568, Rockville, Md.), HCT-15 (National Cancer Institute's DCTF Tumor Repository, catalog#NCI-502711, Rockville, Md. available from American Type Tissue Collection, catalog #CLL-225), KB-3-1 (available from DSMZ, Deutsche Sammlung von Mikroorganismen und Zellkulturen GmbH (German Collection of Microorganisms and Cell Cultures—catalog number ACC 158), KB-V1 (available from DSMZ—catalog number ACC 149), AGS (available from American Type Culture Collection, Manassas Va., catalog number CRL-1739™), N87 (available from American Type Culture Collection, Manassas Va., catalog number CRL-5822), Hel92.1.7 (available from American Type Culture Collection, Manassas Va., catalog number TIB 180), K562 (available from American Type Culture Collection, Manassas Va., catalog number CRL-243™), MV4; 11 (American Tissue Culture Collection, Manassas Va., catalog number CRL-9591) and U937 (available from American Type Culture Collection, Manassas Va., catalog number CRL-1593.2).
Cells were plated in 96-well plates at densities of about 500 cells per well of a 96-well plate and allowed to grow for 24 hours. […] The amount of luminescence was determined for each well using a Wallac Trilux plate reader, which correlates with the number of cells per well. […]
(Cellular ATP, detected with luciferase, serves as a proxy for viable cell number.)

As a reminder, the EC50 is the concentration needed to bring the measured effect to its halfway point. What is called GI50 is the concentration that inhibits growth by half.

As to `CC(C)(C)[C@H](c1nc(-c2cc(F)ccc2F)cn1Cc1ccccc1)N(CC[C@H](N)CF)C(=O)CO` [Compound IIa], the EC50 is 0.02 nM in the experiment with MV4; 11 [1] (MV4;11, 24 h); 0.03 nM with MV4; 11 [1] (MV4;11, 48 h); 0.13 nM with Colo-205 [2] (Colo-205, 24 h); 0.21 nM with Colo-205 [2] (Colo-205, 48 h); 0.19 nM with Colo-205 [2] (Colo-205, 72 h); 0.39 nM in the experiment with T47-D (48 h). Also, the EC50 with T47-D (72 h) came out at 0.4 nM; with HCT-116 (HCT-116, 24 h), 0.12 nM; with HCT-116 (HCT-116, 48 h), 0.09 nM; with MV4; 11 [3], 0.03 nM; in the experiment on Colo-205 [4] (Colo-205, 48 h), 0.11 nM; with Colo-205 [4] (Colo-205, 72 h), 0.16 nM. In the experiment with tumor cell lines, this molecule gave a 50% growth inhibitory concentration (GI50) of 0.1 to 6.5 nM.
